Species: Rattus norvegicus
Experiment: DrugMatrix - Regimen: Daily Repeat
Assay type: toxicity, organism-based, Sprague-Dawley
Design: regimen Daily Repeat, gender Male, age 6-8 weeks
Details: in vivo, po, route oral GAVAGE, […]; for ABSOLUTE BASOPHIL / ABSOLUTE EOSINOPHIL / ABSOLUTE LYMPHOCYTE / ABSOLUTE MONOCYTE / ABSOLUTE SEGMENTED NEUTROPHIL / BASOPHIL / EOSINOPHIL / ERYTHROCYTE COUNT / HEMATOCRIT / HEMOGLOBIN / LEUKOCYTE COUNT / LYMPHOCYTE / MEAN CORPUSCULAR HEMOGLOBIN / MEAN CORPUSCULAR HEMOGLOBIN CONCENTRATION / MEAN CORPUSCULAR VOLUME / MONOCYTE / NEUTROPHIL / NUCLEATED RED BLOOD CELLS / PLATELET COUNT: tissue Blood; for ALANINE AMINOTRANSFERASE / ALBUMIN / ALKALINE PHOSPHATASE / ASPARTATE AMINOTRANSFERASE / BLOOD UREA NITROGEN / CARBON DIOXIDE / CHLORIDE / CHOLESTEROL / CREATINE PHOSPHOKINASE / CREATININE / GLUCOSE / LACTATE DEHYDROGENASE / LIPASE / PHOSPHORUS / POTASSIUM / SODIUM / TOTAL BILIRUBIN / TOTAL PROTEIN / URIC ACID: tissue Plasma
[1] = 81 mg/kg, 72 h, dose level High, time 3 day
[2] = 81 mg/kg, 120 h, dose level High, time 5 day
[3] = 72 h, dose 8.1 mg/Kg, dose level Low, time 3 day
[4] = 120 h, dose 8.1 mg/Kg, dose level Low, time 5 day

SMILES: Nc1ccc(Cc2ccc(N)cc2)cc1
- ABSOLUTE BASOPHIL [1]: 0 CELLS/uL
- ABSOLUTE EOSINOPHIL [1]: 75.33 CELLS/uL
- ABSOLUTE LYMPHOCYTE [1]: 15902.67 CELLS/uL
- ABSOLUTE MONOCYTE [1]: 589 CELLS/uL
- ABSOLUTE SEGMENTED NEUTROPHIL [1]: 3066.33 CELLS/uL
- BASOPHIL [1]: 0%
- EOSINOPHIL [1]: 0.33%
- ERYTHROCYTE COUNT [1]: 5.52 x10E6/uL
- HEMATOCRIT [1]: 34.27%
- HEMOGLOBIN [1]: 13.27 G/DL
- LEUKOCYTE COUNT [1]: 19.63 x10E3/uL
- LYMPHOCYTE [1]: 81.33%
- MEAN CORPUSCULAR HEMOGLOBIN [1]: 24.13 pg
- MEAN CORPUSCULAR HEMOGLOBIN CONCENTRATION [1]: 38.83 G/DL
- MEAN CORPUSCULAR VOLUME [1]: 62.2 fL
- MONOCYTE [1]: 3%
- NEUTROPHIL [1]: 15.33%
- NUCLEATED RED BLOOD CELLS [1]: 0.33 /100WBC
- PLATELET COUNT [1]: 1017.33 x10E3/uL
- ALANINE AMINOTRANSFERASE [1]: 253.67 u/L
- ALBUMIN [1]: 3.4 G/DL
- ALKALINE PHOSPHATASE [1]: 742 u/L
- ASPARTATE AMINOTRANSFERASE [1]: 450.67 u/L
- BLOOD UREA NITROGEN [1]: 10.67 mg/dL
- CARBON DIOXIDE [1]: 24.33 mmol/L
- CHLORIDE [1]: 102.33 MEQ/L
- CHOLESTEROL [1]: 143.67 mg/dL
- CREATINE PHOSPHOKINASE [1]: 1027.33 u/L
- CREATININE [1]: 0.14 mg/dL
- GLUCOSE [1]: 152 mg/dL
- LACTATE DEHYDROGENASE [1]: 723.67 u/L
- LIPASE [1]: 11 u/L
- PHOSPHORUS [1]: 11.77 mg/dL
- POTASSIUM [1]: 5.87 MEQ/L
- SODIUM [1]: 142.6 MEQ/L
- TOTAL BILIRUBIN [1]: 0.9 mg/dL
- TOTAL PROTEIN [1]: 5.13 G/DL
- URIC ACID [1]: 1.27 mg/dL
- ABSOLUTE BASOPHIL [2]: 0 CELLS/uL
- ABSOLUTE EOSINOPHIL [2]: 0 CELLS/uL
- ABSOLUTE LYMPHOCYTE [2]: 23023 CELLS/uL
- ABSOLUTE MONOCYTE [2]: 1729.67 CELLS/uL
- ABSOLUTE SEGMENTED NEUTROPHIL [2]: 3714 CELLS/uL
- BASOPHIL [2]: 0%
- EOSINOPHIL [2]: 0%
- ERYTHROCYTE COUNT [2]: 5.81 x10E6/uL
- HEMATOCRIT [2]: 34.63%
- HEMOGLOBIN [2]: 13.53 G/DL
- LEUKOCYTE COUNT [2]: 28.47 x10E3/uL
- LYMPHOCYTE [2]: 81%
- MEAN CORPUSCULAR HEMOGLOBIN [2]: 23.33 pg
- MEAN CORPUSCULAR HEMOGLOBIN CONCENTRATION [2]: 39.1 G/DL
- MEAN CORPUSCULAR VOLUME [2]: 59.67 fL
- MONOCYTE [2]: 6%
- NEUTROPHIL [2]: 13%
- NUCLEATED RED BLOOD CELLS [2]: 0 /100WBC
- PLATELET COUNT [2]: 1124.33 x10E3/uL
- ALANINE AMINOTRANSFERASE [2]: 131.67 u/L
- ALBUMIN [2]: 3.4 G/DL
- ALKALINE PHOSPHATASE [2]: 589 u/L
- ASPARTATE AMINOTRANSFERASE [2]: 255.33 u/L
- BLOOD UREA NITROGEN [2]: 14 mg/dL
- CARBON DIOXIDE [2]: 28.33 mmol/L
- CHLORIDE [2]: 101.67 MEQ/L
- CHOLESTEROL [2]: 138.33 mg/dL
- CREATINE PHOSPHOKINASE [2]: 541 u/L
- CREATININE [2]: 0.23 mg/dL
- GLUCOSE [2]: 138.33 mg/dL
- LACTATE DEHYDROGENASE [2]: 636.33 u/L
- LIPASE [2]: 11.67 u/L
- PHOSPHORUS [2]: 9.3 mg/dL
- POTASSIUM [2]: 5.58 MEQ/L
- SODIUM [2]: 142.97 MEQ/L
- TOTAL BILIRUBIN [2]: 0.83 mg/dL
- TOTAL PROTEIN [2]: 5.7 G/DL
- URIC ACID [2]: 1.2 mg/dL
- ABSOLUTE BASOPHIL [3]: 0 CELLS/uL
- ABSOLUTE EOSINOPHIL [3]: 0 CELLS/uL
- ABSOLUTE LYMPHOCYTE [3]: 10998 CELLS/uL
- ABSOLUTE MONOCYTE [3]: 210.33 CELLS/uL
- ABSOLUTE SEGMENTED NEUTROPHIL [3]: 1658.33 CELLS/uL
- BASOPHIL [3]: 0%
- EOSINOPHIL [3]: 0%
- ERYTHROCYTE COUNT [3]: 5.48 x10E6/uL
- HEMATOCRIT [3]: 34.13%
- HEMOGLOBIN [3]: 13.5 G/DL
- LEUKOCYTE COUNT [3]: 12.87 x10E3/uL
- LYMPHOCYTE [3]: 85.67%
- MEAN CORPUSCULAR HEMOGLOBIN [3]: 24.7 pg
- MEAN CORPUSCULAR HEMOGLOBIN CONCENTRATION [3]: 39.6 G/DL
- MEAN CORPUSCULAR VOLUME [3]: 62.3 fL
- MONOCYTE [3]: 1.67%
- NEUTROPHIL [3]: 12.67%
- NUCLEATED RED BLOOD CELLS [3]: 0 /100WBC
- PLATELET COUNT [3]: 1052.33 x10E3/uL
- ALANINE AMINOTRANSFERASE [3]: 74.67 u/L
- ALBUMIN [3]: 3.93 G/DL
- ALKALINE PHOSPHATASE [3]: 451 u/L
- ASPARTATE AMINOTRANSFERASE [3]: 94.33 u/L
- BLOOD UREA NITROGEN [3]: 12 mg/dL
- CARBON DIOXIDE [3]: 24 mmol/L
- CHLORIDE [3]: 102.67 MEQ/L
- CHOLESTEROL [3]: 79 mg/dL
- CREATINE PHOSPHOKINASE [3]: 294.67 u/L
- CREATININE [3]: 0.2 mg/dL
- GLUCOSE [3]: 157.33 mg/dL
- LACTATE DEHYDROGENASE [3]: 177 u/L
- LIPASE [3]: 12.33 u/L
- PHOSPHORUS [3]: 12.33 mg/dL
- POTASSIUM [3]: 5.95 MEQ/L
- SODIUM [3]: 143.97 MEQ/L
- TOTAL BILIRUBIN [3]: 0.17 mg/dL
- TOTAL PROTEIN [3]: 5.47 G/DL
- URIC ACID [3]: 1.27 mg/dL
- ABSOLUTE BASOPHIL [4]: 0 CELLS/uL
- ABSOLUTE EOSINOPHIL [4]: 0 CELLS/uL
- ABSOLUTE LYMPHOCYTE [4]: 11058.67 CELLS/uL
- ABSOLUTE MONOCYTE [4]: 46 CELLS/uL
- ABSOLUTE SEGMENTED NEUTROPHIL [4]: 1295.33 CELLS/uL
- BASOPHIL [4]: 0%
- EOSINOPHIL [4]: 0%
- ERYTHROCYTE COUNT [4]: 5.5 x10E6/uL
- HEMATOCRIT [4]: 34.53%
- HEMOGLOBIN [4]: 13.8 G/DL
- LEUKOCYTE COUNT [4]: 12.4 x10E3/uL
- LYMPHOCYTE [4]: 89.67%
- MEAN CORPUSCULAR HEMOGLOBIN [4]: 25.13 pg
- MEAN CORPUSCULAR HEMOGLOBIN CONCENTRATION [4]: 39.97 G/DL
- MEAN CORPUSCULAR VOLUME [4]: 62.83 fL
- MONOCYTE [4]: 0.33%
- NEUTROPHIL [4]: 10%
- NUCLEATED RED BLOOD CELLS [4]: 0 /100WBC
- PLATELET COUNT [4]: 1265 x10E3/uL
- ALANINE AMINOTRANSFERASE [4]: 63.67 u/L
- ALBUMIN [4]: 4.2 G/DL
- ALKALINE PHOSPHATASE [4]: 474 u/L
- ASPARTATE AMINOTRANSFERASE [4]: 88.67 u/L
- BLOOD UREA NITROGEN [4]: 11.33 mg/dL
- CARBON DIOXIDE [4]: 35.33 mmol/L
- CHLORIDE [4]: 100.33 MEQ/L
- CHOLESTEROL [4]: 59.33 mg/dL
- CREATINE PHOSPHOKINASE [4]: 280.67 u/L
- CREATININE [4]: 0.16 mg/dL
- GLUCOSE [4]: 138.67 mg/dL
- LACTATE DEHYDROGENASE [4]: 317.67 u/L
- LIPASE [4]: 10.67 u/L
- PHOSPHORUS [4]: 10.57 mg/dL
- POTASSIUM [4]: 6.26 MEQ/L
- SODIUM [4]: 144.83 MEQ/L
- TOTAL BILIRUBIN [4]: 0.2 mg/dL
- TOTAL PROTEIN [4]: 5.93 G/DL
- URIC ACID [4]: 1.4 mg/dL
